For test [1], the system named is GM3 expression in C32 human melanoma cells. The experiment in a line: GM3 fluorescent-linked immunosorbent assay (FLISA), C32 cells. It is filed as cell-based. As to conditions: 48 hours. From the text:
(§1) Inhibition of glucosylceramide synthase activity can be measured with one or more assays. A first assay is a microsomal assay that directly measures the conversion of ceramide to glucosylceramide by HPLC. Microsomes are a source of glucosylceramide synthase activity in the microsomal assay. A second assay is a cell based, phenotypic assay that monitors cell surface expression of the downstream lipid GM3 by antibody mediated immunofluorescence. Specific protocols are provided below.
(§2) This is a phenotypic assay that measures GM3 expression in B16 mouse melanoma or C32 human melanoma cells following treatment with test compounds. Cell surface GM3 expression is determined by antibody mediated fluorescence.
(§3) Compounds are diluted in media and plated in 384 well plates in DMSO. B16 and C32 cells are assayed at densities of 20,000 cells/ml and 62,500 cells/ml, respectively, per well. Each titration curve contains 10 points that are assayed in duplicate on each test run. The plates are incubated for 48 hours at 37° C., 5% CO2, and are then washed once with TBS. Anti-GM3 antibody is added to each well and the plates are then incubated for an additional one hour at room temperature. Plates are subsequently washed twice and incubated for an additional hour with the labeled secondary antibody. Following the final incubation, the plates are washed twice and the fluorescence at λex=D640/20 nm and λem=657 nm is detected on a fluorescent reader.
(§4) The results of the microsomal assays are expressed as “GCS IC50”, which represents the concentration of the compound causing 50% inhibition of glucosylceramide synthase activity. The results of the cell-based assays are expressed as “GM3 B16 IC50” or “GM3 C32 IC50” for the B16 assay and the C32 assay, respectively. These values represent the concentration of the compound causing 50% inhibition of GM3 expression on the cell surface.

Test [2] deals with GM3 expression in B16 mouse melanoma cells. Briefly: GM3 fluorescent-linked immunosorbent assay (FLISA), B16 cells. The class given is cell-based. As to conditions: 48 hours.
Description: as §1, §2, §3, §4

Test [3] relates to GL-3, lyso-GL-3, GL-1 and GM3. Particulars: Fabry patients of the historical phase 3 trial (Eng et al. 2001), matched; after 156 weeks; cited from earlier work.

On to `CC(C)(NC(=O)OC1CN2CCC1CC2)c1ccc(-c2ccc(OCCCC#N)cc2)cc1` (stereo not drawn) [Compound 22, Quinuclidin-3-yl(2-(4′-(3-cyanopropoxy)-[1,1′-biphenyl]-4-yl)propan-2-yl)carbamate], for which the IC50 turned out to be 3.2 nM in test [1] and 86.5 nM in test [2].

Take `COCCOc1ccc(-c2ccc(C(C)(C)NC(=O)OC3CN4CCC3CC4)nc2)cc1` (stereo not drawn) [Compound 21, Quinuclidin-3-yl 2-(5-(4-(2-methoxyethoxy)phenyl)pyridin-2-yl)propan-2-ylcarbamate]: the IC50 in test [1] was 11.1 nM; in test [2], 266 nM.

For the molecule `O=C(NC1(c2ccc(-c3ccc(F)cc3F)cc2)CC1)O[C@@H]1CN2CCC1CC2` [Compound 8, (S)-1-azabicyclo[2.2.2]oct-3-yl[1-(2′,4′-difluorobiphenyl-4-yl)cyclopropyl]carbamate], the figures for the IC50 in test [1] and in test [2] were 0.4 nM and 7.5 nM, respectively.

Turning to `CC(C)(NC(=O)OC1CN2CCC1CC2)c1cccc(-c2ccccc2)c1` (stereo not drawn) [Compound 4, 1-azabicyclo[2.2.2]oct-3-yl[2-(biphenyl-3-yl)propan-2-yl]carbamate], the IC50 in test [1] came out at 0.8 nM; in test [2], 11.6 nM.

`COCCOc1ccc(-c2nc(C(C)(C)NC(=O)OC3CN4CCC3CC4)cs2)cc1` (stereo not drawn) [Compound 20, Quinuclidin-3-yl(2-(2-(4-(2-methoxyethoxy)phenyl)thiazol-4-yl)propan-2-yl)carbamate]: the IC50 in test [1] amounted to 19.8 nM; in test [2], 106 nM.

As for `CC(C)(NC(=O)O[C@@H]1CN2CCC1CC2)c1nc(-c2ccc(F)cc2)cs1` [Compound 12, (S)-quinuclidin-3-yl 2-(4-(4-fluorophenyl)thiazol-2-yl)propan-2-ylcarbamate], the results for the IC50 in test [1] and in test [2] were 3.7 nM and 87.8 nM, respectively.

Regarding `O=C(NC1(c2ccc(-c3ccccc3)cc2)CC1)OC1CN2CCC1CC2` (stereo not drawn) [Compound 6, Quinuclidin-3-yl 1-(biphenyl-4-yl)cyclopropylcarbamate], the results for the IC50 in test [1] and in test [2] were 0.6 nM and 18.1 nM, respectively.

For `CC(C)(NC(=O)OC1CN2CCC1CC2)c1ccc(-c2ccc(OCC#N)cc2)cc1` (stereo not drawn) [Compound 23], the IC50 in test [1] amounted to 0.8 nM; in test [2], 47.7 nM.

Take `COCCOc1ccc(-c2ccc(C(C)(C)NC(=O)O[C@@H]3CN4CCC3CC4)cc2)cc1` [Compound 3, (S)-quinuclidin-3-yl(2-(4′-(2-methoxyethoxy)-[1,1′-biphenyl]-4-yl)propan-2-yl)carbamate]: the IC50 stood at 1.31 nM in test [1] and 43.7 nM in test [2].

For `O=C(NC1(c2ccc(-c3ccc(F)cc3)cc2)CC1)O[C@@H]1CN2CCC1CC2` [Compound 7, (S)-quinuclidin-3-yl 1-(4′-fluorobiphenyl-4-yl)cyclopropylcarbamate], the results for the concentration for half-maximal inhibition (IC50) in test [1] and in test [2] were 0.4 nM and 8.1 nM, respectively.

Take `COCCOc1cccc(-c2ccc(C(C)(C)NC(=O)O[C@@H]3CN4CCC3CC4)cc2)c1` [Compound 14, (S)-quinuclidin-3-yl(2-(3′-(2-methoxyethoxy)-[1,1′-biphenyl]-4-yl)propan-2-yl)carbamate]: the IC50 in test [1] came out at 5.3 nM; in test [2], 110 nM.

For the molecule `COCCOc1ccc(-c2ccc(C(C)(C)NC(=O)OC3CN4CCC3CC4)cc2)cc1` (stereo not drawn) [Compound 13, Quinuclidin-3-yl(2-(4′-(2-methoxyethoxy)-[1,1′-biphenyl]-4-yl)propan-2-yl)carbamate], the IC50 was found to be 0.7 nM in test [1] and 38.6 nM in test [2].

As for `CC(C)(NC(=O)O[C@@H]1CN2CCC1CC2)c1ccc(-c2ccccc2)cc1` [Compound 5, (S)-quinuclidin-3-yl 2-(biphenyl-4-yl)propan-2-ylcarbamate], the results for the IC50 in test [1] and in test [2] were 0.3 nM and 19.3 nM, respectively.

For the molecule `COCCCOc1ccc(-c2nc(C(C)(C)NC(=O)OC3CN4CCC3CC4)cs2)cc1` (stereo not drawn) [Compound 19, Quinuclidin-3-yl(2-(2-(4-(3-methoxypropoxy)phenyl)thiazol-4-yl)propan-2-yl)carbamate], the results for the IC50 in test [1] and in test [2] were 42.6 nM and 197 nM, respectively.

`CC(C)(NC(=O)OC1CN2CCC1CC2)c1csc(-c2ccc(F)cc2)c1` (stereo not drawn) [Compound 10, Quinuclidin-3-yl 2-(5-(4-fluorophenyl)thiophen-3-yl)propan-2-ylcarbamate]: the IC50 came to 2.2 nM in test [1] and 21.3 nM in test [2].

As to `CC(C)(NC(=O)OC1CN2CCC1CC2)c1ccc(-c2ccc(CO)cc2)cc1` (stereo not drawn) [Compound 17, Quinuclidin-3-yl(2-(4′-(hydroxymethyl)-[1,1′-biphenyl]-4-yl)propan-2-yl)carbamate], the IC50 in test [1] is 21.6 nM; in test [2] it was 879 nM.

For `CC(C)(NC(=O)OC1CN2CCC1CC2)c1cccc(-c2ccc(F)cc2)c1` (stereo not drawn) [Compound 1, 1-azabicyclo[2.2.2]oct-3-yl[2-(4′-fluorobiphenyl-3-yl)propan-2-yl]carbamate], the values for the IC50 in test [1] and in test [2] were 2.1 nM and 15.6 nM, respectively.

As for `COCCCOc1ccc(-c2ccc(C(C)(C)NC(=O)OC3CN4CCC3CC4)cc2)cc1` (stereo not drawn) [Compound 16, Quinuclidin-3-yl(2-(4′-(3-methoxypropoxy)-[1,1′-biphenyl]-4-yl)propan-2-yl)carbamate], the results for the IC50 in test [1] and in test [2] were 1.6 nM and 66.6 nM, respectively.

For `CC(C)(NC(=O)O[C@@H]1CN2CCC1CC2)c1cc(-c2ccc(F)cc2)ns1` [Compound 11, (S)-quinuclidin-3-yl 2-(3-(4-fluorophenyl)isothiazol-5-yl)propan-2-ylcarbamate], the IC50 in test [1] was determined as 1.8 nM; in test [2], 81.9 nM.

Take `COCCOc1ccc(-c2cccc(C(C)(C)NC(=O)OC3CN4CCC3CC4)c2)cc1` (stereo not drawn) [Compound 15, Quinuclidin-3-yl(2-(4′-(2-methoxyethoxy)-[1,1′-biphenyl]-3-yl)propan-2-yl)carbamate]: the IC50 is 4.9 nM in test [1] and 29.5 nM in test [2].

`CC(C)(NC(=O)OC1CN2CCC1CC2)c1ccc(-c2ccc(CCO)cc2)cc1` (stereo not drawn) [Compound 18, Quinuclidin-3-yl(2-(4′-(2-hydroxyethyl)-[1,1′-biphenyl]-4-yl)propan-2-yl)carbamate]: the IC50 in test [1] came to 22.3 nM; in test [2], 656 nM.

With `COc1ccc(-c2ccc(C3(NC(=O)OC4CN5CCC4CC5)CC3)cc2)cc1` (stereo not drawn) [Compound 9, 1-azabicyclo[2.2.2]oct-3-yl[1-(4′-methoxybiphenyl-4-yl)cyclopropyl]carbamate], the IC50 came to 0.4 nM in test [1] and 16.8 nM in test [2].

B1: agalsidase beta: historical control arm: patients treated with agalsidase beta (Fabrazyme) in a previously completed placebo-controlled phase 3 trial (protein, UniProt P06280 32-429, looked up)
Alpha-galactosidase A: LDNGLARTPTMGWLHWERFMCNLDCQEEPDSCISEKLFMEMAELMVSEGWKDAGYEYLCIDDCWMAPQRDSEGRLQADPQRFPHGIRQLANYVHSKGLKLGIYADVGNKTCAGFPGSFGYYDIDAQTFADWGVDLLKFDGCYCDSLENLADGYKHMSLALNRTGRSIVYSCEWPLYMWPFQKPNYTEIRQYCNHWRNFADIDDSWKSIKSILDWTSFNQERIVDVAGPGGWNDPDMLVIGNFGLSWNQQVTQMALWAIMAAPLFMSNDLRHISPQAKALLQDKDVIAINQDPLGKQGYQLRQGDNFEVWERPLSGLAWAVAMINRQEIGGPRSYTIAVASLGKGVACNPACFITQLLPVKRKLGFYEWTSRLRSHINPTGTVLLQLENTMQMSLKDLL
modifications: agalsidase beta
notes: historical control arm: patients treated with agalsidase beta (Fabrazyme) in a previously completed placebo-controlled phase 3 trial
Regarding B1, the “Plasma GL-3 levels” value in test [3] is 4.44 µg/mL.

The record behind these values is patent publication US20220016092A1, “METHODS FOR TREATING SYMPTOMS AND DISORDERS ASSOCIATED WITH LYSOSOMAL STORAGE DISEASES” (GENZYME CORPORATION, priority 2019, published 2022).
